We go through two molecules from paper PMC11239005, “Preclinical studies of RA475, a guanidine-substituted spirocyclic candidate RPN13/ADRM1 inhibitor for treatment of ovarian cancer” (PLOS ONE, 2024).

Read-outs that look alike come from different tables or passages of the source.

One may read the IC50 as the concentration that inhibits the measured activity by half.

One data set concerns the target hERG potassium channel (Homo sapiens, UniProt Q12809). The data set is described as follows: hERG Thallium Flux FLIPR-Based Assay. The procedure: Supplementary file pone.0305710.s008.tif: S8 Fig hERG inhibition in vitro. […] Concentration range of 0.023–50 μM (8 points, 3-fold serial dilutions) B) Dose-response curve for RA475. Concentration range of 0.045–100 μM (8 points, 3-fold serial dilutions). C) Dose-response curve for Up284. Concentration range of 0.045–100 μM (8 points, 3-fold serial dilutions). (TIF)
On the technique in general: hERG is a cardiac potassium channel; its block is linked to QT prolongation.

The subject of another data set is LaPC4. In words: MTT cytotoxicity assay, LaPC4. It counts as cell-based. Particulars: Homo sapiens, LaPC4, 72 h. How it is done:
(§1) All cell lines were obtained from the American Type Culture Collection (ATCC) and cultured in the specified medium supplemented with 10% fetal bovine serum, 100 IU/mL penicillin, and 100 μg/mL streptomycin at 37°C in a humidified 5% CO2/95% air incubator. Synthesis of new compounds is described in S1 File, and >95% purity of RA475, Up284 and its analogs were confirmed by NMR and MS. To assess drug cytotoxicity, cells were seeded at 2,500 cells/well (10,000 cells/well for MM lines) in 100 μL medium in 96-well plate as triplicates and after 24 h treated with compounds for a further 72 h. To assess cytotoxicity, the cells were incubated for 2 h at 37°C according to the manufacturer’s protocol with the Thiazolyl Blue Tetrazolium Bromide (20 μL/well of 5 mg/mL stock solution in water) (Sigma, M5655) and A570 measured using a Benchmark Plus microplate spectrophotometer (BIO-RAD). IC50 was estimated using Graphpad Prism 7 software.
For orientation: Tetrazolium dyes change colour on reduction, which living cells bring about.

The conditions of data set [1]: 1 h; Up284 not in this paper's method, no reference at the place; cited from earlier work.
The test system of a further data set is HT29. In words: MTT cytotoxicity assay, HT29. Particulars: Homo sapiens, HT-29, HT29, 72 h. Format: cell-based. The procedure:
as §1

Another data set relates to PEA2. In words: MTT cytotoxicity assay, PEA2. It counts as cell-based. Particulars: Homo sapiens. How it is done:
as §1
Modifications of Up284 were sought to improve its drug-like properties without significant compromise of its activity in vivo, and several new compounds were synthesized (S1 File). Based on our prior studies of its pharmacophore, the central ring nitrogen was the most logical for addition of charged moieties, including RA475 and RA484. We also examined a change to either 3,4 spiro rings (RA477, RA479), or addition of 3-Fluoro substitutions (RA482) (S1 File). Our focus is developing iRPN13 to treat ovarian cancer resistant to standard of care drug regimens.

Another data set deals with MDA-MB-468 cells. In words: Surface Annexin V display by flow cytometry, MDA-MB-468. Format: cell-based. Particulars: MDA-MB-468, 12 h; RA475 1 or 2 μM, ixazomib 1 μM. How it is done: The percentage of cells initiating apoptosis was assessed with the annexin V FITC assay kit. The cells (2 × 10^5 cells/well) were treated with the described compounds at selected concentrations for 12 h or 16 h, as indicated. The cells were then collected, washed with PBS, resuspended in 100 μL of annexin V-FITC and 7-AAD dual-stain solution (3 μL Annexin V and 3 μL 7AAD, Catalog Number; 559763-BD bioscience), and incubated 20 min in the dark. The samples were then analyzed via flow cytometry using FlowJo V10 software. All experiments were repeated three times.
Supplementary file pone.0305710.s006.tif: S6 Fig RA475 induced apoptosis in a triple negative breast cancer cell line. […] (TIF)
Background: A flow cytometer gives signals particle by particle.

Data set [2] in a line: Stability in mouse liver microsomes. Format: in vitro ADME. Particulars: with or without NADPH, over 1 h. How it is done:
Human and mouse liver microsomes and NADPH regenerating system solutions were purchased from Corning Life Sciences (Tewsbury, MA). Human and mouse K2EDTA-treated plasma was purchased from BioIVT (Westbury, NY). Metabolic studies in liver microsomes (0.125 mg/mL) were conducted in 1x PBS (pH 7.4), NADPH-generating system, and 10 μM RA475 in a final volume of 250 μL. An incubation mixture with or without NADPH-generating system, as well as a neat solution prepared without microsomes and NADPH-generating system was used. RA475 was added at the same concentration level into human and mouse EDTA plasma. All reactions were initiated with the addition of RA475. Incubations were performed in glass tubes maintained at 37°C in a shaker bath. At 0, 30, and 60 min, 10 μL samples were withdrawn from the reaction mixture, and 0.5 mL of acetonitrile containing internal standard was added to each. Samples were vortex-mixed and subjected to centrifugation for 5 min at 1430 x g. A 10 μL aliquot of the supernatant was injected onto the LC-MS/MS instrument for qualitative analysis using a temperature-controlled autosampling device operating at 5°C (See Pharmacokinetic section).

Chain of hERG potassium channel (Q12809 whole entry): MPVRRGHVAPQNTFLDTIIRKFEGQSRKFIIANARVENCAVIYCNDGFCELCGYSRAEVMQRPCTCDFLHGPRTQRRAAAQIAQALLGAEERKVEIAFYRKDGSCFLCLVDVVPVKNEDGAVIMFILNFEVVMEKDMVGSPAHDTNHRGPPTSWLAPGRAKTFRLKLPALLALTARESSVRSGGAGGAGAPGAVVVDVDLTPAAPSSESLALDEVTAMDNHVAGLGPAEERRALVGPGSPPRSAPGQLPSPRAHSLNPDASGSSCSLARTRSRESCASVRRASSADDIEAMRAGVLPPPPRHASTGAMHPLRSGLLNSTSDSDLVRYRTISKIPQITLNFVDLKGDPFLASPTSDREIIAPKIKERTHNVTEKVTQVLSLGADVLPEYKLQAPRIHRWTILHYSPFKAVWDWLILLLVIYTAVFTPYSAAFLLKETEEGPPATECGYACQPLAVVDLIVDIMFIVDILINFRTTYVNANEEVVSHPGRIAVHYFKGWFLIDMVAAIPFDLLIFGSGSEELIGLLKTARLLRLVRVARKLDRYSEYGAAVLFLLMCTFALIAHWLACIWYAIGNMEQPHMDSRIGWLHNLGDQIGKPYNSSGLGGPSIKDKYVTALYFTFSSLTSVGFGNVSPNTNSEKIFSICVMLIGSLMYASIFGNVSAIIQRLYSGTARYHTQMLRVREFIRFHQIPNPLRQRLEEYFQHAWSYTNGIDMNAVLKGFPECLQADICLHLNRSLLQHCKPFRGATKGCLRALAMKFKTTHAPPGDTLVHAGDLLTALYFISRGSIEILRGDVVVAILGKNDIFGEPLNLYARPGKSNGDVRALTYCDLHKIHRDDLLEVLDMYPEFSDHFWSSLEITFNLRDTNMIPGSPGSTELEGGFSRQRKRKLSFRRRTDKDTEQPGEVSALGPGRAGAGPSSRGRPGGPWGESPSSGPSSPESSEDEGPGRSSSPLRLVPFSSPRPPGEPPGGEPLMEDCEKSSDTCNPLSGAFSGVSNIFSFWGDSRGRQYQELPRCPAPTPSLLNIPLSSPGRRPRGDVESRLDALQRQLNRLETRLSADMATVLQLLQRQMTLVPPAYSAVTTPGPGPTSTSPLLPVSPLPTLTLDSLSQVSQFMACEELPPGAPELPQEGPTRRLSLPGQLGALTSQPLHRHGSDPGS

`N#Cc1ccc(/C=C2/C(=O)/C(=C/c3ccc(C#N)cc3)C23CCNCC3)cc1` [Up284, reference compound]: the IC50 at hERG potassium channel is 4300 nM; in the data set on LaPC4, 510 nM; in the data set on HT29, 43 nM; in the data set on PEA2 (PEA2, 72 h, MTT, read-out: IC50) it was 144 nM. The “present after 1 h in liver microsomes” value in data set [1] was 52%.
Turning to `Cl.Cl.N#Cc1ccc(/C=C2/C(=O)/C(=C/c3ccc(C#N)cc3)C23CCN(C(=N)N)CC3)cc1` [RA475, 1,3-bis((E)-4-cyanobenzylidene)-2-oxo-7-azaspiro[3.5]nonane-7-carboximidamide dihydrochloride], the concentration for half-maximal inhibition (IC50) against hERG potassium channel is 85800 nM; with LaPC4, 2030 nM; in the data set with HT29 it was 401 nM; in the data set on PEA2 (72 h) it was 356 nM. Besides, the “apoptosis by surface Annexin V display” value in the data set on MDA-MB-468 cells is reported as “initiated apoptosis”. For the same molecule, the “degradation in liver microsomes” value in data set [2] was below 10%.
